According to BindingDB's records for doi:10.1016/j.bmcl.2009.08.022 (Roche Palo Alto, 2009):

These compounds were tested against Genome polyprotein (Hepatitis C virus genotype 1b (isolate Con1), UniProt Q9WMX2) (assay: Inhibition of […] con1 NS5B polymerase assessed as [3H]UTP incorporation into acid insoluble RNA product).
Chain of Genome polyprotein (Q9WMX2 2420-3010 limits assumed): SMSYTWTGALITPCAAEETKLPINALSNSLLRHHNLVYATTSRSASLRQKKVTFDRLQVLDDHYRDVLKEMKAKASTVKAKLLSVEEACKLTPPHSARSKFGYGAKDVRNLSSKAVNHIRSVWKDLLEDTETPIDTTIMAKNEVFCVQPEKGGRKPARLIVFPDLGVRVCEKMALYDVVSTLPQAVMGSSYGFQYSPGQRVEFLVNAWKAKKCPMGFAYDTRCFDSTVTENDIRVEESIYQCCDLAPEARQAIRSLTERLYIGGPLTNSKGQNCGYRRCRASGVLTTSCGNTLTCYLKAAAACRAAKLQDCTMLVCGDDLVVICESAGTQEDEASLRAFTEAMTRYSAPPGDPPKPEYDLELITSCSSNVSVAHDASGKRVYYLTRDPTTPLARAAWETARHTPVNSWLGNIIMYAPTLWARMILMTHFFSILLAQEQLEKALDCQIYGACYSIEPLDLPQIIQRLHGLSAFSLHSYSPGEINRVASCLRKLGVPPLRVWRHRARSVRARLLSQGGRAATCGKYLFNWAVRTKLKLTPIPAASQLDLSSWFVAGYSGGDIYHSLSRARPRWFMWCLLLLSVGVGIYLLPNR
`Cc1cc(CN2C(=O)C(C3NS(=O)(=O)c4c(C=NS(N)(=O)=O)cccc43)C(=O)[C@@H]2C(C)(C)C)ccc1F` (stereo partly drawn) [N-({3-[(5S)-5-tert-butyl-1-[(4-fluoro-3-methylphenyl)methyl]-4-hydroxy-2-oxo-2,5-dihydro-1H-pyrrol-3-yl]-1,1-dioxo-{6},2-benzothiazol-7-yl}methyl)aminosulfonamide] was tested, and the IC50 was 3 nM. `CC(C)(C)[C@H]1C(=O)C(=C2NS(=O)(=O)c3c(CCS(C)(=O)=O)cccc32)C(=O)N1Cc1ccc(F)cc1` [(S)-5-tert-Butyl-1-(4-fluoro-benzyl)-4-hydroxy-3-[7-(2-methanesulfonyl-ethyl)-1,1-dioxo-1H-1lambda*6*-benzo[d]isothiazol-3-yl]-1,5-dihydro-pyrrol-2-one] gave an IC50 of 4 nM. `Cc1cc(CN2C(=O)C(=C3NS(=O)(=O)c4c(CNS(C)(=O)=O)cccc43)C(=O)[C@@H]2C(C)(C)C)ccc1F` [N-{3-[(S)-5-tert-Butyl-1-(4-fluoro-3-methyl-benzyl)-4-hydroxy-2-oxo-2,5-dihydro-1H-pyrrol-3-yl]-1,1-dioxo-1H-1lambda*6*-benzo[d]isothiazol-7-ylmethyl}-methanesulfonamide] gave an IC50 of 4 nM. Work on `CC(C)(C)[C@H]1C(=O)C(=C2NS(=O)(=O)c3c(NS(C)(=O)=O)cccc32)C(=O)N1Cc1ccc(F)cc1` [N-{3-[(S)-5-tert-Butyl-1-(4-fluoro-benzyl)-4-hydroxy-2-oxo-2,5-dihydro-1H-pyrrol-3-yl]-1,1-dioxo-1H-1lambda*6*-benzo[d]isothiazol-7-yl}-methanesulfonamide] yielded an IC50 of 5 nM. Work on `CC(C)(C)[C@H]1C(=O)C(C2NS(=O)(=O)c3c(C=NS(N)(=O)=O)cccc32)C(=O)N1Cc1ccc(F)cc1` (stereo partly drawn) [N-({3-[(5S)-5-tert-butyl-1-[(4-fluorophenyl)methyl]-4-hydroxy-2-oxo-2,5-dihydro-1H-pyrrol-3-yl]-1,1-dioxo-{6},2-benzothiazol-7-yl}methyl)aminosulfonamide] yielded an IC50 of 3 nM. With `Cc1cc(CN2C(=O)C(=C3NS(=O)(=O)c4c(CN(C)S(C)(=O)=O)cccc43)C(=O)[C@@H]2C(C)(C)C)ccc1F` [N-{3-[(S)-5-tert-Butyl-1-(4-fluoro-3-methyl-benzyl)-4-hydroxy-2-oxo-2,5-dihydro-1H-pyrrol-3-yl]-1,1-dioxo-1H-1lambda*6*-benzo[d]isothiazol-7-ylmethyl}-N-methyl-methanesulfonamide] the IC50 was 5 nM.
